1 compound from US9522133B2, “Substituted 1,2,3,4-tetrahydrocyclopenta[b]indol-3-yl)acetic acid derivatives useful in the treatment of autoimmune and inflammatory disorders” (Arena Pharmaceuticals, Inc., priority 2008, dated 2016) can be followed below.

For series [1], the system named is peripheral blood lymphocyte (PBL) count. Nature of the series: Mouse peripheral lymphocyte lowering (PLL) assay. The following applies: male BALB/c mice, 1.00 mg/kg oral dose, 5 hours post-dose, vs vehicle; FIG. 7. The series is classed as in vivo. On the procedure: Male BALB/c mice (Charles River Laboratories, Wilmington, Mass.) were housed four per cage and maintained in a humidity-controlled (40 to 60%) and temperature-controlled (68 to 72° F.) facility on a 12 h:12 h light/dark cycle (lights on at 6:30 am) with free access to food (Harlan Teklad, Orange, Calif., Rodent Diet 8604) and water. Mice were allowed one week of habituation to the animal facility before testing.
(§1) Mice were given an oral dose of Compound 5, Compound 7 or dosing vehicle (0.5% methylcellulose) in a total volume of 10 mL/kg. Peripheral blood samples were collected at 5 hours post-dose. The mice were anesthetized with isoflurane and blood was collected via cardiac puncture. A complete cell count (CBC), including lymphocyte count, was obtained using a CELL-DYN® 3700 (Abbott Laboratories, Abbott Park, Ill.) instrument. Results are presented in FIGS. 1 and 2, in which peripheral blood lymphocyte (PBL) count is shown for the 5 hour group.
as §1, with “given a 1.00 mg/kg” for “given an”, “of the 2nd enantiomer of compound 12 (isolated after resolution of compound 12 by HPLC, with a retention time of 13.9 min per the conditions reported in Example 1.29)” for “of Compound 5, Compound 7”, “(0.5% methylcellulose in sterile water)” for “(0.5% methylcellulose)”, “in FIG. 7,” for “in FIGS. 1 and 2,”

For series [2] the test system is unchanged. The series is described as follows: Rat peripheral lymphocyte lowering (PLL) assay. The series is classed as in vivo. The following applies: male Sprague-Dawley rats, 1.00 mg/kg oral dose, 5 hours post-dose, vs vehicle; FIG. 8. How it is done:
Male Sprague-Dawley rats (7 weeks of age at start of study) (Charles River Laboratories) were housed two per cage and maintained in a humidity-controlled (40-60%) and temperature-controlled (68-72° F.) facility on a 12 h:12 h light/dark cycle (lights on at 6:30 am) with free access to food (Harlan Teklad, Orange, Calif., Rodent Diet 8604) and water. Rats were allowed one week of habituation to the animal facility before testing.
Rats were given a 1.00 mg/kg oral dose of the 2nd enantiomer of compound 12 (isolated after resolution of compound 12 by HPLC, with a retention time of 13.9 min per the conditions reported in Example 1.29) or dosing vehicle (0.5% methylcellulose in sterile water) in a total volume of 1.00 mL/kg. Peripheral blood samples were collected at 5 hours post-dose. Blood was collected via indwelling catheter. A complete cell count (CBC), including lymphocyte count, was obtained using a CELL-DYN® 3700 (Abbott Laboratories, Abbott Park, Ill.) instrument. Results are presented in FIG. 8, in which peripheral blood lymphocyte (PBL) count is shown for the 5 hour group.

In the next series the test system is MOG-induced EAE. The series is described as follows: MOG-induced experimental autoimmune encephalomyelitis (EAE) in mice. The following applies: female C57BL/6 mice, oral once a day day 3 to day 21, 0.3, 1 and 3 mg/kg; FIG. 10. The series is classed as in vivo, mouse. On the procedure: Female C57BL/6 mice (8 to 10 weeks of age at start of study) (Jackson Laboratory, Bar Harbor, Me.) were housed four per cage and maintained in a humidity-controlled (40-60%) and temperature-controlled (68-72° F.) facility on a 12 h:12 h light/dark cycle (lights on at 6:30 am) with free access to food (Harlan Teklad, Orange, Calif., Rodent Diet 8604) and water. Mice were allowed one week of habituation to the animal facility before testing.
Mice were immunized subcutaneously, 50 μL per hind flank, with a total of 100 μg MOG35-55 peptide emulsified 1:1 with Complete Freund's adjuvant containing 4 mg/mL heat-killed Mycobacterium tuberculosis. […]
Severity of disease symptoms was scored as follows (in increasing order of severity): 0=normal; 1=limp tail OR hind limb weakness; 2=limp tail AND limb weakness/weakness of 2 or more limbs; 3=severe limb weakness or single limb paralysis; 4=paralysis of 2 or more limbs; 5=death.
Mice were dosed orally, with vehicle or the 2nd enantiomer of compound 12 (isolated after resolution of compound 12 by HPLC, with a retention time of 13.9 min per the conditions reported in Example 1.29), once a day from day 3 until day 21. […] Mice were monitored daily from day 7 onward for disease symptoms. After the last dose on day 21, disease progression was monitored daily for 2 more weeks.

Series [3] in a line: Cardiac telemetry / bradycardia assay in the rat. The series is classed as in vivo. The note with it: male Sprague-Dawley rats, oral, vehicle PEG400, heart rate over a 120 min period; FIG. 11. How it is done: Male Sprague-Dawley rats (250-300 g at time of surgery) were implanted by Charles River Laboratories (Wilmington, Mass.) with cardiac transmitting devices (Data Sciences PhysioTel C50-PXT) into the peritoneal space, with a pressure-sensing catheter inserted into the descending aorta. Rats are allowed at least one week to recover. Rats were housed in individual cages and maintained in a humidity-controlled (30-70%) and temperature-controlled (20-22° C.) facility on a 12 h:12 h light/dark cycle (lights on at 7:00 am) with free access to food (Harlan-Teklad, Orange, Calif., Rodent Diet 8604) and water. Rats were allowed one week of habituation to the animal facility before testing.
The implanted transmitting devices transmitted continuous measurements of blood pressure (systolic, diastolic, mean arterial, pulse), heart rate, body temperature, and motor activity in freely moving conscious animals. […] Telemetry recording occurred over a 21-h period, starting at noon and continuing until 9:00 am the following day. […]
By way of illustration and not limitation, the rats were administered vehicle (PEG 400) and the 2nd enantiomer of compound 12 (isolated after resolution of compound 12 by HPLC, with a retention time of 13.9 min per the conditions reported in Example 1.29) and heart rate was then measured over a 120 min period.

The test system of the next series is mean ankle diameter. The series is described as follows: Collagen-induced arthritis in rats (ankle diameter). The note with it: female Lewis rats, collagen injections day 0 and 6, p.o. q.d. day 0-16, 0.3, 1 and 3 mg/kg; FIG. 9. The series is classed as in vivo, rat. How it is done:
Female Lewis rats were used in this study. Acclimated animals were anesthetized with isoflurane and given the first collagen injection (day 0). On day 6, they were anesthetized again for the second collagen injection. Collagen was prepared by making a 4 mg/mL solution in 0.01 N acetic acid. Equal volumes of collagen and incomplete Freund's adjuvant were emulsified by hand mixing until a bead of this material held its form when placed in water. Each animal received 300 μL of the mixture each time, spread over 3 subcutaneous sites on the back.
Treatment (p.o., q.d., 5 mL/kg dosing volume) began on day 0 and continued through day 16 with vehicle or compounds given at 24 h intervals. Rats were weighed on days 0, 3, 6 and 9 through 17 and caliper measurements of the ankles taken on days 9 through 17. The 2nd enantiomer of compound 12 (isolated after resolution of compound 12 by HPLC, with a retention time of 13.9 min per the conditions reported in Example 1.29) was dosed at 0.3, 1 and 3 mg/kg.

Structures are written as SMILES.

With `O=C(O)C[C@H]1CCc2c1[nH]c1ccc(OCc3ccc(C4CCCC4)c(C(F)(F)F)c3)cc21` [2nd enantiomer of compound 12, (R)-2-(7-(4-cyclopentyl-3-(trifluoromethyl)benzyloxy)-1,2,3,4-tetrahydrocyclopenta[b]indol-3-yl)acetic acid], the “activity for inducing PBL lowering (lymphopenia)” value in series [1] and in series [2] was “exhibited activity for inducing PBL lowering (lymphopenia)” throughout. The “reduction of severity of disease symptoms (clinical score) in EAE” value with MOG-induced EAE was “exhibited activity in the mouse EAE assay”. Besides, the “reduction of heart rate (bradycardia)” value in series [3] is “no or substantially no reduction of heart rate”. In addition, the “reduction of mean ankle diameter” value in the series with mean ankle diameter is reported as “exhibited activity for reducing mean ankle diameter”.
